{
  "source": "patent US20230092679A1",
  "about": "“MCL-1 INHIBITOR ANTIBODY-DRUG CONJUGATES AND METHODS OF USE” (NOVARTIS AG, priority 2019, published 2023)",
  "format_in_all_cases": "cell-based",
  "key": {"[1]": {"system": "cmk", "assay": "In vitro ADC activity, AML cell lines, CellTiter-Glo (Example 20)", "conditions": "5 days"}, "[2]": {"system": "p31fuj", "assay": "In vitro ADC activity, AML cell lines, CellTiter-Glo (Example 20)", "conditions": "5 days"}, "[3]": {"system": "monomac1", "assay": "In vitro ADC activity, AML cell lines, CellTiter-Glo (Example 20)", "conditions": "monomac1, 5 days"}, "[4]": {"system": "f36p", "assay": "In vitro ADC activity, AML cell lines, CellTiter-Glo (Example 20)", "conditions": "5 days"}, "[5]": {"system": "hel", "assay": "In vitro ADC activity, AML cell lines, CellTiter-Glo (Example 20)", "conditions": "5 days"}, "[6]": {"system": "pl21", "assay": "In vitro ADC activity, AML cell lines, CellTiter-Glo (Example 20)", "conditions": "pl21, 5 days"}, "[7]": {"system": "kg1", "assay": "In vitro ADC activity, AML cell lines, CellTiter-Glo (Example 20)", "conditions": "kg1, 5 days"}, "[8]": {"system": "aml193", "assay": "In vitro ADC activity, AML cell lines, CellTiter-Glo (Example 20)", "conditions": "aml193, 5 days"}, "[9]": {"system": "5339hx", "assay": "In vitro ADC activity, AML cell lines, CellTiter-Glo (Example 20)", "conditions": "5 days"}, "[10]": {"system": "eol1", "assay": "In vitro ADC activity, AML cell lines, CellTiter-Glo (Example 20)", "conditions": "eol1, 5 days"}, "[11]": {"system": "ociaml3", "assay": "In vitro ADC activity, AML cell lines, CellTiter-Glo (Example 20)", "conditions": "ociaml3, 5 days"}, "[12]": {"system": "nb4", "assay": "In vitro ADC activity, AML cell lines, CellTiter-Glo (Example 20)", "conditions": "nb4, 5 days"}, "[13]": {"system": "5979hx", "assay": "In vitro ADC activity, AML cell lines, CellTiter-Glo (Example 20)", "conditions": "5 days"}, "[14]": {"system": "mv411", "assay": "In vitro ADC activity, AML cell lines, CellTiter-Glo (Example 20)", "conditions": "mv411, 5 days"}, "[15]": {"system": "NCI-H929", "assay": "CellTiter-Glo proliferation assay, single agent and with venetoclax (Example 19)", "conditions": "5 days; for IC50: Homo sapiens, NCI-H929, 120 h; for Amax: in %", "procedure": "(§1) The CD48 MCL-1 antibody drug conjugates were tested against four endogenous cancer cell lines. KMS-21 BM (JCRB No. JCRB1185 cultured in RPMI-1640+10% FBS), KMS-20 (JCRB No. JCRB1196 cultured in RPMI-1640+10% FBS), KMS-27 (JCRB No. JCRB1188 cultured in RPMI-1640+10% FBS), and NCI-H929 (ATCC No. CRL-9068 cultured in RPMI-1640+10% FBS+0.05 mM 2-mercaptoethanol).\n(§2) The ability of the CD48 MCL-1 antibody drug conjugates to inhibit cell proliferation and survival was assessed using the Promega CellTiter-Glo® proliferation assay. Cell lines were cultured in media that is optimal for their growth at 5% CO2, 37° C. in a tissue culture incubator. Prior to seeding for the proliferation assay, the cells were split at least 2 days before the assay to ensure optimal growth density. On the day of seeding, suspension cells were harvested. Cell viability and cell density were determined using a cell counter (Vi-Cell XR Cell Viability Analyzer, Beckman Coulter). […] Cells were seeded at a density of 1,000 cells per well in 45 μL of standard growth media. Plates were incubated at 5% CO2, 37° C. overnight in a tissue culture incubator. The next day, free MCL-1 payload (P1), targeting MCL-1 ADCs and non-targeting isotype ADCs were prepared at 10× in standard growth media. The prepared drug treatments were then added to the cells resulting in final concentrations of 0.0005-300 nM and a final volume of 50 μL per well. Each drug concentration was tested in quadruplets. Two conditions were evaluated for each compound. The compounds were evaluated as single agents and in combination with venetoclax. The venetoclax was dosed at either 5 nM or 50 nM final concentration. Plates were incubated at 5% CO2, 37° C. for 5 days in a tissue culture incubator, after which cell viability was assessed through the addition of 25 μL of CellTiter Glo® (Promega, cat #G7573), a reagent which lyses cells and measures total adenosine triphosphate (ATP) content. Plates were incubated at room temperature for 10 minutes to stabilize luminescent signals prior to reading using a luminescence reader (EnVision Multilabel Plate Reader, PerkinElmer). To evaluate the effect of the drug treatments, luminescent counts from wells containing untreated cells (100% viability) were used to normalize treated samples. A variable slope model was applied to fit a nonlinear regression curve to the data in GraphPad PRISM version 7.02 software. IC50 and Amax values were extrapolated from the resultant curves."}, "[16]": {"system": "KMS-27", "assay": "CellTiter-Glo proliferation assay, single agent and with venetoclax (Example 19)", "conditions": "5 days; for IC50: KMS-27, 120 h; for Amax: in %", "procedure": "as §1, §2"}, "[17]": {"system": "KMS-21 BM", "assay": "CellTiter-Glo proliferation assay, single agent and with venetoclax (Example 19)", "conditions": "5 days; for IC50: 120 h; for Amax: in %", "procedure": "as §1, §2"}, "[18]": {"system": "KMS-20", "assay": "CellTiter-Glo proliferation assay, single agent and with venetoclax (Example 19)", "conditions": "5 days; for IC50: KMS-20, 120 h; for Amax: in %", "procedure": "as §1, §2"}, "[19]": {"system": "hl60", "assay": "In vitro ADC activity, AML cell lines, CellTiter-Glo (Example 20)", "conditions": "hl60, 5 days"}},
  "data": [
    {"smiles": "COc1ccccc1-c1nccc(COc2ccccc2C[C@@H](Oc2ncnc3sc(-c4ccc(F)cc4)c(-c4ccc(OCCN5CCN(C)CC5)c(Cl)c4C)c23)C(=O)O)n1", "note": "[P1, (2R)-2-[5-[3-chloro-2-methyl-4-[2-(4-methylpiperazin-1-yl)ethoxy]phenyl]-6-(4-fluorophenyl)thieno[2,3-d]pyrimidin-4-yl]oxy-3-[2-[[2-(2-methoxyphenyl)pyrimidin-4-yl]methoxy]phenyl]propanoic acid]", "values": [
      {"measurement": "Amax", "setting": "[1]; unit assumed", "value": 100, "unit": "%"},
      {"measurement": "GI50", "setting": "[1]; Homo sapiens, 120 h", "value": "> 10000", "unit": "nM"},
      {"measurement": "Amax", "setting": "[2]; in % (unit assumed)", "value": "−73"},
      {"measurement": "GI50", "setting": "[2]; Homo sapiens, P31-FUJ, 120 h", "value": 116, "unit": "nM"},
      {"measurement": "GI50", "setting": "[3]; Mono-Mac-1, 120 h", "value": 1, "unit": "nM"},
      {"measurement": "Amax", "setting": "[3]; in % (unit assumed)", "value": "−66"},
      {"measurement": "GI50", "setting": "[4]; 120 h", "value": "> 10000", "unit": "nM"},
      {"measurement": "Amax", "setting": "[4]; unit assumed", "value": 51, "unit": "%"},
      {"measurement": "Amax", "setting": "[5]; unit assumed", "value": 4, "unit": "%"},
      {"measurement": "GI50", "setting": "[5]; Homo sapiens, 120 h", "value": 6090, "unit": "nM"},
      {"measurement": "GI50", "setting": "[6]; PL-21, 120 h", "value": 350, "unit": "nM"},
      {"measurement": "Amax", "setting": "[6]; in % (unit assumed)", "value": "−55"},
      {"measurement": "GI50", "setting": "[7]; Homo sapiens, KG-1, 120 h", "value": 861, "unit": "nM"},
      {"measurement": "Amax", "setting": "[7]; in % (unit assumed)", "value": "−69"},
      {"measurement": "GI50", "setting": "[8]; 120 h", "value": 6, "unit": "nM"},
      {"measurement": "Amax", "setting": "[8]; in % (unit assumed)", "value": "−87"},
      {"measurement": "GI50", "setting": "[9]; 120 h", "value": 5, "unit": "nM"},
      {"measurement": "Amax", "setting": "[9]; in % (unit assumed)", "value": "−83"},
      {"measurement": "GI50", "setting": "[10]; Homo sapiens, 120 h", "value": 1, "unit": "nM"},
      {"measurement": "Amax", "setting": "[10]; in % (unit assumed)", "value": "−91"},
      {"measurement": "GI50", "setting": "[11]; Homo sapiens, OCI-AML-3, 120 h", "value": 138, "unit": "nM"},
      {"measurement": "Amax", "setting": "[11]; unit assumed", "value": 1, "unit": "%"},
      {"measurement": "GI50", "setting": "[12]; Homo sapiens, NB-4, 120 h", "value": 3, "unit": "nM"},
      {"measurement": "Amax", "setting": "[12]; in % (unit assumed)", "value": "−62"},
      {"measurement": "GI50", "setting": "[13]; 120 h", "value": 1, "unit": "nM"},
      {"measurement": "Amax", "setting": "[13]", "value": "−83"},
      {"measurement": "GI50", "setting": "[14]; Homo sapiens, MV4-11, 120 h", "value": 1, "unit": "nM"},
      {"measurement": "Amax", "setting": "[14]; in % (unit assumed)", "value": "−72"},
      {"measurement": "IC50", "setting": "[15]; NCI-H929, + 5 nM Venetoclax", "value": 8.69, "unit": "nM"},
      {"measurement": "IC50", "setting": "[15]; NCI-H929, + 50 nM Venetoclax", "value": 8.29, "unit": "nM"},
      {"measurement": "IC50", "setting": "[15]; NCI-H929, single agent", "value": 10.7, "unit": "nM"},
      {"measurement": "Amax", "setting": "[15]; NCI-H929, + 5 nM Venetoclax", "value": 91.53},
      {"measurement": "Amax", "setting": "[15]; NCI-H929, + 50 nM Venetoclax", "value": 103.4},
      {"measurement": "Amax", "setting": "[15]; NCI-H929, single agent", "value": 90.09},
      {"measurement": "IC50", "setting": "[16]; KMS-27, + 5 nM Venetoclax", "value": 20.1, "unit": "nM"},
      {"measurement": "IC50", "setting": "[16]; KMS-27, + 50 nM Venetoclax", "value": 12, "unit": "nM"},
      {"measurement": "IC50", "setting": "[16]; KMS-27, single agent", "value": 153, "unit": "nM"},
      {"measurement": "Amax", "setting": "[16]; KMS-27, + 5 nM Venetoclax", "value": 110.5},
      {"measurement": "Amax", "setting": "[16]; KMS-27, + 50 nM Venetoclax", "value": 114.7},
      {"measurement": "IC50", "setting": "[17]; + 5 nM Venetoclax", "value": 5.57, "unit": "nM"},
      {"measurement": "IC50", "setting": "[17]; + 50 nM Venetoclax", "value": 5.23, "unit": "nM"},
      {"measurement": "IC50", "setting": "[17]; single agent", "value": 5.73, "unit": "nM"},
      {"measurement": "Amax", "setting": "[17]; + 5 nM Venetoclax", "value": 100.8},
      {"measurement": "Amax", "setting": "[17]; + 50 nM Venetoclax", "value": 99.41},
      {"measurement": "Amax", "setting": "[17]; single agent", "value": 94.25},
      {"measurement": "IC50", "setting": "[18]; KMS-20, + 5 nM Venetoclax", "value": 30.6, "unit": "nM"},
      {"measurement": "IC50", "setting": "[18]; KMS-20, + 50 nM Venetoclax", "value": 36.2, "unit": "nM"},
      {"measurement": "IC50", "setting": "[18]; KMS-20, single agent", "value": 34.7, "unit": "nM"},
      {"measurement": "Amax", "setting": "[18]; KMS-20, + 5 nM Venetoclax", "value": 75.53},
      {"measurement": "Amax", "setting": "[18]; KMS-20, + 50 nM Venetoclax", "value": 82.77},
      {"measurement": "Amax", "setting": "[18]; KMS-20, single agent", "value": 65.65},
      {"measurement": "GI50", "setting": "[19]; Homo sapiens, HL-60, 120 h", "value": 87, "unit": "nM"},
      {"measurement": "Amax", "setting": "[19]; in % (unit assumed)", "value": "−71"}
    ]}
  ]
}
